Assay: xn = mol fraction of the nth substance listed
Conditions: Liquid, Pycnometric method

Cc1ccccc1C [1,2-dimethylbenzene] + C1COCCO1
mass density [kg/m3]
Conditions | 288.15 K | 293.15 K | 298.15 K | 303.15 K | 308.15 K | 313.15 K | 318.15 K
x2 = 0 | 884.09 | 879.83 | 875.57 | 871.31 | 867.05 | 862.79 | 858.53
x2 = 0.0672 | 891.2 | 886.85 | 882.5 | 878.15 | 873.8 | 869.45 | 865.1
x2 = 0.1391 | 899.18 | 894.73 | 890.29 | 885.85 | 881.41 | 876.97 | 872.53
x2 = 0.2103 | 907.48 | 902.95 | 898.42 | 893.89 | 889.36 | 884.83 | 880.3
x2 = 0.2853 | 916.69 | 912.06 | 907.43 | 902.8 | 898.17 | 893.55 | 888.93
x2 = 0.3543 | 925.67 | 920.95 | 916.23 | 911.51 | 906.79 | 902.08 | 897.37
x2 = 0.4293 | 936 | 931.18 | 926.36 | 921.55 | 916.74 | 911.93 | 907.12
x2 = 0.5092 | 947.69 | 942.77 | 937.85 | 932.93 | 928.02 | 923.11 | 918.2
x2 = 0.581 | 958.89 | 953.86 | 948.83 | 943.81 | 938.79 | 933.77 | 928.75
x2 = 0.6518 | 970.57 | 965.44 | 960.31 | 955.19 | 950.07 | 944.95 | 939.83
x2 = 0.7248 | 983.38 | 978.14 | 972.9 | 967.66 | 962.43 | 957.2 | 951.97
x2 = 0.7888 | 995.25 | 989.91 | 984.57 | 979.23 | 973.9 | 968.57 | 963.24
x2 = 0.8595 | 1009.11 | 1003.66 | 998.21 | 992.77 | 987.33 | 981.89 | 976.45
x2 = 0.9298 | 1023.75 | 1018.19 | 1012.63 | 1007.08 | 1001.53 | 995.99 | 990.45
